From patent publication US6458577B1, “Methods of culturing and assaying a virus in a specimen and compositions and cell lines for doing the same” (priority 1997, dated 2002)
Values joined by “and” are separate entries in the source; they are usually repeats but may differ in a detail not shown here. Identical values can stand only once. Marks after values point to notes of the source that are not given here.

Key:
[1] = tested on: CMV in mink lung cells (ATCC No. CCL64); assay: CMV shell vial culture in NaB-treated mink lung cells, immunofluorescent staining of IE antigen, count of stained nuclei; assay type: cell-based; conditions: for Treated: average # of nuclei staining from three shell vials: 80 mM sodium butyrate 24 hours before CMV infection; for Treated: average # of nuclei staining from three shell vials / counts of positive stained nuclei from 2 shell vials / # of Foci (average # of stained nuclei counted from three shell vials): mink lung; for counts of positive stained nuclei from 2 shell vials: 80 mM sodium butyrate 24 hours before infection; for # of Foci (average # of stained nuclei counted from three shell vials): 80 mM sodium butyrate; for # positive stained nuclei: average of four shell vials
Procedure: (§1) Mink lung cells available from American Type Culture Collection ATTC No. CCL64 are provided. The cells are received in frozen vials from ATCC and are prepared by first thawing in a 37° C. water bath. The thawed cells are removed from the bath and cultured in a tissue culture flask with Opti MEM culture medium supplemented with 5% fetal calf serum and non-essential amino acids, available from Life Technologies, Inc., of Gaithersburg, Md., and the antibiotics penicillin (100 units/ml), streptomycin (100 μg/ml) and the fungizone amphotericin (0.25 μg/ml). The cultured cells reach a complete monolayer in about 3 to 4 days. The mink lung cells are propagated by trypsinization and approximately 2.5×10^5 dispersed cells per shell vial are seeded in shell vials with cover slips. The shell vials are incubated at 37° C. for 24 hours or until the cells form a monolayer.
(§2) The cells were then treated with a 5 mM sodium butyrate (NaB) tissue culture solution, prepared by dissolving the appropriate amount of NaB in tissue culture media and filtering the solution, and incubated for 16 to 24 hours. After incubation the NaB and tissue culture media is removed and the treated cells are inoculated with 0.2 ml of CMV inoculum originally from a clinical specimen obtained from urine and prepared by putting the specimen into a viral transport medium containing Hank's buffer, 1% bovine albumin and the antibiotics penicillin (200 units/ml) and streptomycin (200 μg/ml) and the fungizone amphotericin (0.5 μg/ml). After inoculation the shell vials are centrifuged at 700×g for 45 minutes at 23° C. After centrifugation, 0.5 ml of fresh media is added to each vial and the vials are incubated at 37° C. for 16 to 24 hours. After incubation the media is removed and the cell layers are rinsed with phosphate buffered saline (PBS), fixed with cold acetone for 10 minutes, and rinsed again with PBS.
After fixing, the cells are stained by adding 100 μl of CMV monoclonal antibody (mAb), incubated at 37° C. for 45 minutes and then rinsed with PBS. The CMV mAb used is E-13 monoclonal antibody against immediate early (IE) antigen of CMV. This antibody is used as a primary antibody in the first step of staining and is available from Accurated Chemical and Scientific Co., Westbury, N.Y. After the first staining step 100 μl of biotin which is conjugated with antimouse IgG is added followed by additional incubation at 37° C. for 45 minutes. The biotin complex is available from Boerhinger Mannheim Co., Indianapolis, Ind. The cells are rinsed again with PBS after incubation and then incubated with 100 μl of streptavidin conjugated with fluorescein isothiocyanate (FITC) for 45 minutes at 37° C. The streptavidin complex is also available from Boerhinger Mannheim Co., Indianapolis, Ind. After a final rinse with PBS, a coverslip removed from the shell vial is mounted on the slide which is then examined under a fluorescence equipped microscope manufactured in Germany by Carl Zeiss, Inc., and available from W. Nuhsbaum, McHenry, II. The specific apple-green stained nuclei were counted. The results are reported in Table 1 as positive stained nuclei as an average of four shell vials. […]
These examples were prepared using the same procedure as Example 1, except that the concentration of NaB used was varied and both mink lung cells and MRC-5 cells were used. Also, the MRC-5 were treated with NaB before infection and 2 mM CaCl2, 1% DMSO and 10^−5M dexamethasone after infection. Table 3 indicates the concentration of NaB used and the results obtained. […]
These examples used the same procedure as Example 1 for CMV growth except that the time of treatment with sodium butyrate was varied, i.e., the cells were treated with 80 mM sodium butyrate for different times before infection, and the MRC-5 cells were treated with 2 mM calcium chloride (CaCl2), 1% dimethyl sulfoxide (DMSO) and 10^−5M dexamethasone after infection.

HSV-1 in mink lung cells = assay: HSV-1 shell vial culture in NaB-treated mink lung cells, foci of cytopathic effect under light microscope; assay type: cell-based; conditions: for cpe = foci of cytopathic effect: mink lung cells, average of two shell vials
Procedure: as §1
Mink lung cells were prepared as described in Example 1. Cells were then infected with HSV-1 (originally from clinical specimens but passaged once in tissue culture so virus content is assured). The HSV-1 culture fluid was diluted 1:1000 before use for inoculation. In each shell vial, 0.2 ml of inoculum was used. After centrifuging for 45 minutes at 700×g at 23° C., 0.5 ml of Opti-MEM with 2% fetal calf serum was added to each vial and incubated overnight at 37° C. The following day, the cytopathic effect of the inoculated culture was observed under light microscope. The results are reported in Table 2 and are from the average of two shell vials.

[2] = tested on: CMV in mink lung cells (ATCC No. CCL64); assay: CMV shell vial culture in NaB-treated mink lung cells, immunofluorescent staining of IE antigen, count of stained nuclei; assay type: cell-based; conditions: for # of Foci (average # of stained nuclei counted from three shell vials): 80 mM sodium butyrate, mink lung
CMV in MRC-5 cells = assay: CMV shell vial culture in NaB-treated MRC-5 cells, immunofluorescent staining, count of stained nuclei; assay type: cell-based, human; conditions: for counts of positive stained nuclei from 2 shell vials: 80 mM sodium butyrate 24 hours before infection, MRC-5, cell age 2 days; for MRC-5 cells # of stained nuclei: 2 mM CaCl2, 1% DMSO, 10^-5M dexamethasone after infection
Procedure: as §2
After fixing, the cells are stained by adding 100 μl of CMV monoclonal antibody (mAb), incubated at 37° C. for 45 minutes and then rinsed with PBS. The CMV mAb used is E-13 monoclonal antibody against immediate early (IE) antigen of CMV. This antibody is used as a primary antibody in the first step of staining and is available from Accurated Chemical and Scientific Co., Westbury, N.Y. After the first staining step 100 μl of biotin which is conjugated with antimouse IgG is added followed by additional incubation at 37° C. for 45 minutes. The biotin complex is available from Boerhinger Mannheim Co., Indianapolis, Ind. The cells are rinsed again with PBS after incubation and then incubated with 100 μl of streptavidin conjugated with fluorescein isothiocyanate (FITC) for 45 minutes at 37° C. The streptavidin complex is also available from Boerhinger Mannheim Co., Indianapolis, Ind. After a final rinse with PBS, a coverslip removed from the shell vial is mounted on the slide which is then examined under a fluorescence equipped microscope manufactured in Germany by Carl Zeiss, Inc., and available from W. Nuhsbaum, McHenry, II. The specific apple-green stained nuclei were counted. The results are reported in Table 1 as positive stained nuclei as an average of four shell vials.
Conventionally, human embryonic lung (HEL) fibroblast cells, such as the MRC-5 cell line which is available from Diagnostic Hybrids, Inc., Athens, Ohio, are used worldwide for CMV culture and viral isolation.
These examples were prepared using the same procedure as Example 1, except that the concentration of NaB used was varied and both mink lung cells and MRC-5 cells were used. Also, the MRC-5 were treated with NaB before infection and 2 mM CaCl2, 1% DMSO and 10^−5M dexamethasone after infection. Table 3 indicates the concentration of NaB used and the results obtained.
(§3) These examples used the same procedure as Example 1 for CMV growth except that the age of the cells were varied, the cells were treated with 80 mM sodium butyrate 24 hours before infection, and the MCR-5 cells were treated 2 mM calcium chloride (CaCl2), 1% dimethyl sulfoxide (DMSO)and 10^−5M dexamethasone after infection.
as §3, with “MRC-5” for “MCR-5”, “(DMSO), and” for “(DMSO)and”, “infection. The cell age is measured as the time after seeding of the cells in the shell vial.” for “infection.”

CCCC(=O)[O-].[Na+] [NaB, sodium butyrate]
effect on susceptibility of mink lung cells to CMV infection at different cell age (in words) ([1]; 80 mM NaB, cell age 2 to 7 days, Table 5): enhanced the susceptibility | Treated: average # of nuclei staining from three shell vials ([1]; cell age 2 days): 123* | Treated: average # of nuclei staining from three shell vials ([1]; cell age 3 days): 121 | Treated: average # of nuclei staining from three shell vials ([1]; cell age 5 days): 78 | Treated: average # of nuclei staining from three shell vials ([1]; cell age 7 days): 30 | counts of positive stained nuclei from 2 shell vials ([1]; cell age 2 days, inoculum 10^-0 (no dilution)): 232/220 | counts of positive stained nuclei from 2 shell vials ([1]; cell age 2 days, inoculum 10^-1 (1:10 dilution)): 44/52 | counts of positive stained nuclei from 2 shell vials ([1]; cell age 2 days, inoculum 10^-2 (1:100 dilution)): 5/2 | counts of positive stained nuclei from 2 shell vials ([1]; cell age 3 days, inoculum 10^-0 (no dilution)): 242/309 | counts of positive stained nuclei from 2 shell vials ([1]; cell age 3 days, inoculum 10^-1 (1:10 dilution)): 47/43 | counts of positive stained nuclei from 2 shell vials ([1]; cell age 3 days, inoculum 10^-2 (1:100 dilution)): 1/2 | # of Foci (average # of stained nuclei counted from three shell vials) ([1]; time of treatment 4 hours before CMV infection): 234 | # of Foci (average # of stained nuclei counted from three shell vials) ([1]; time of treatment 6 hours before CMV infection): 276 | # of Foci (average # of stained nuclei counted from three shell vials) ([1]; time of treatment 18 hours before CMV infection): 360* | response of mink lung cells to NaB treatment versus NaB treated MRC-5 cells (in words) ([1]; CMV infection, Table 3): better response | # positive stained nuclei ([1]; NaB 5 mM, 16 to 24 hours before CMV inoculation, mink lung cells): 22 | Mink lung cells # of stained nuclei ([1]; NaB 10 mM before CMV infection): 7 and 9 | # positive stained nuclei ([1]; NaB 10 mM before CMV inoculation, mink lung cells): 30 | Mink lung cells # of stained nuclei ([1]; NaB 20 mM before CMV infection): 12 | # positive stained nuclei ([1]; NaB 20 mM before CMV inoculation, mink lung cells): 38 | Mink lung cells # of stained nuclei ([1]; NaB 40 mM before CMV infection): 12 and 23 | # positive stained nuclei ([1]; NaB 40 mM before CMV inoculation, mink lung cells): 71 | Mink lung cells # of stained nuclei ([1]; NaB 80 mM before CMV infection): 26 and 32 | # positive stained nuclei ([1]; NaB 80 mM before CMV inoculation, mink lung cells): 85 | increase in number of stained cells as compared with untreated mink lung cells ([1]; NaB 80 mM, CMV, mink lung cells): about 10 fold | sensitivity for CMV isolation and detection versus MRC-5 cells (in words) ([1]; NaB treated mink lung cells, Table 1): far superior sensitivity | optimum concentration for growth of CMV in mink lung cells ([1]; Table 1): about 80 mM | virus detection at high dilution of inoculum (in words) ([1]; mink lung cells treated with NaB 80 mM, Table 4): the virus is still detected | cpe = foci of cytopathic effect (HSV-1 in mink lung cells; NaB 2.5 mM, 16 to 24 hours before HSV-1 infection (1:1000)): 18 | cpe = foci of cytopathic effect (HSV-1 in mink lung cells; NaB 5.0 mM before HSV-1 infection): 20 | cpe = foci of cytopathic effect (HSV-1 in mink lung cells; NaB 10.0 mM before HSV-1 infection): 22 | cpe = foci of cytopathic effect (HSV-1 in mink lung cells; NaB 20 mM before HSV-1 infection): 12 | sensitivity for HSV isolation and detection versus RK cells (in words) (HSV-1 in mink lung cells; NaB treated mink lung cells, Table 2): comparable sensitivity | # of Foci (average # of stained nuclei counted from three shell vials) ([2]; time of treatment 2 hours before CMV infection): 126 | # of Foci (average # of stained nuclei counted from three shell vials) ([2]; time of treatment 8 hours before CMV infection): 306 | enhancement of CMV expression ([2]; 2 hour treatment of mink lung cells with NaB (80 mM)): more than a two fold enhancement | time of treatment required for optimum enhancement of CMV expression ([2]; mink lung cells, 80 mM NaB): at least 8 hours | Treated: average # of nuclei staining from three shell vials (CMV in MRC-5 cells; 80 mM sodium butyrate 24 hours before CMV infection, MRC-5, cell age 4 days, CaCl2, DMSO, dexamethasone after infection): 4 | counts of positive stained nuclei from 2 shell vials (CMV in MRC-5 cells; CaCl2, DMSO, dexamethasone after infection, inoculum 10^-0 (no dilution)): 39/29 | counts of positive stained nuclei from 2 shell vials (CMV in MRC-5 cells; CaCl2, DMSO, dexamethasone after infection, inoculum 10^-1 (1:10 dilution)): 3/1 | counts of positive stained nuclei from 2 shell vials (CMV in MRC-5 cells; CaCl2, DMSO, dexamethasone after infection, inoculum 10^-2 (1:100 dilution)): 0/0 | MRC-5 cells # of stained nuclei (CMV in MRC-5 cells; NaB 10 mM before CMV infection): 2 and 3 | MRC-5 cells # of stained nuclei (CMV in MRC-5 cells; NaB 20 mM before CMV infection): 2 | MRC-5 cells # of stained nuclei (CMV in MRC-5 cells; NaB 80 mM before CMV infection): 7 and 6
